This test addresses T1, human ΔF508-CFTR (Homo sapiens, UniProt P13569, DEL508-508).
T1 construct: expressed in transfected cells
The test is described as follows: CFTR-YFP high throughput assay, CFTR corrector protocol (YFP iodide flux quench). The format is cell-based. The settings on record: FRT cells expressing human ΔF508-CFTR and YFP-H148Q/I152L, 24-26 h incubation with compound; for Emax: normalized to the positive control, read-out: EMAX (% Efficacy, EMAX normalized to the positive control); for pEC50: stimulated with 20 μM Forskolin & 30 μM P3. How it is done:
Assays for Detecting and Measuring the Effect of Compounds on dF508-CFTR Channels CFRT-YFP High Throughput Assay-CFTR Corrector Protocol:
This protocol is designed to selectively screen small molecule compounds for F508del CFTR corrector activities in the HTS YFP flux assay. In this protocol, the cells are incubated with testing compounds for 24 hours, washed with PBS, stimulated with forskolin and a standard potentiator, and read on a 384-well HTS plate reader, such as the Hamamatsu FDDD-6000.
YFP fluorescence intensity is acquired at high speed before and after iodide buffer is injected to the assay cells. Iodide enters the cells via active CFTR channels in the plasma membrane, and quenches the YFP fluorescence. The rate of fluorescence quenching is proportionally related to the total CFTR activities in the cell membrane. dF508-CFTR corrector accelerates YFP quenching by increasing the number of CFTR molecules in the testing cell plasma membrane.
This method was initially developed for bench top plate readers (Galietta et al., 2001), and was adapted to the HTS format (Sui et al. Assay Drug Dev. Technol. 2010).
Fisher Rat Thyroid (FRT) cells stably expressing both human ΔF508-CFTR and a halide-sensitive yellow fluorescent protein (YFP-H148Q/I152L 25,22) (Galietta et al., Am. J. Physiol Cell Physiol, 281(5), C1734, 2001) were cultured on plastic surface in Coon's modified Ham's F12 medium supplemented with FBS 10%, L-glutamine 2 mM, penicillin 100 U/ml, and streptomycin 100 μg/ml. G418 (0.75-1.0 mg/ml) and zeocin (3.2 ug/ml) were used for selection of FRT cells expressing ΔF508-CFTR and YFP. For primary screening, FRT cells were plated into 384-well black wall, transparent bottom microtiter plates (Costar; Corning Inc.) at a cell density of 20,000-40,000 per well. Test compound was applied to the cells at varying concentrations ranging from 2 nM-[…] in either a 2-fold or 3-fold dilution series. Cells were incubated in a cell culture incubator at 37° C. with 5% CO2 for 24-26 h. Assay plates were washed with DPBS media (Thermo, cat #SH30028.02) to remove unbound cells and compound. Stimulation media (25 μL) containing 20 μM Forskolin & 30 μM P3 [6-(Ethyl-phenyl-sulfonyl)-4-oxo-1,4-dihydro-quinoline-3-carboxylic acid 2-methoxy-benzylamide] in Hams F-12 coon's modified media was added to the plate wells and incubated at room temperature for 60-120 min. 25 μL of HEPES-PBS -I buffer (10 mM HEPES, 1 mM MgCl2, 3 mM KCl, 1 mM CaCl2, 150 mM NaI) was then added and fluorescence quench curves (Excitation 500 nm/Emission 540 nm; exposure 136 ms) were immediately recorded on an FDSS-6000 plate reader (Hamamatsu). Quench rates were derived from least squares fitting of the data as described by Sui et al. (2010).

Results on 31 molecules are retold here after patent US9771327B2, “Compounds and methods for the treatment of cystic fibrosis” (FLATLEY DISCOVERY LAB, LLC, priority 2013, dated 2017).

pEC50: −log10 of the molar value.

T1 sequence (P13569 with tags, fused parts or gaps DEL508-508): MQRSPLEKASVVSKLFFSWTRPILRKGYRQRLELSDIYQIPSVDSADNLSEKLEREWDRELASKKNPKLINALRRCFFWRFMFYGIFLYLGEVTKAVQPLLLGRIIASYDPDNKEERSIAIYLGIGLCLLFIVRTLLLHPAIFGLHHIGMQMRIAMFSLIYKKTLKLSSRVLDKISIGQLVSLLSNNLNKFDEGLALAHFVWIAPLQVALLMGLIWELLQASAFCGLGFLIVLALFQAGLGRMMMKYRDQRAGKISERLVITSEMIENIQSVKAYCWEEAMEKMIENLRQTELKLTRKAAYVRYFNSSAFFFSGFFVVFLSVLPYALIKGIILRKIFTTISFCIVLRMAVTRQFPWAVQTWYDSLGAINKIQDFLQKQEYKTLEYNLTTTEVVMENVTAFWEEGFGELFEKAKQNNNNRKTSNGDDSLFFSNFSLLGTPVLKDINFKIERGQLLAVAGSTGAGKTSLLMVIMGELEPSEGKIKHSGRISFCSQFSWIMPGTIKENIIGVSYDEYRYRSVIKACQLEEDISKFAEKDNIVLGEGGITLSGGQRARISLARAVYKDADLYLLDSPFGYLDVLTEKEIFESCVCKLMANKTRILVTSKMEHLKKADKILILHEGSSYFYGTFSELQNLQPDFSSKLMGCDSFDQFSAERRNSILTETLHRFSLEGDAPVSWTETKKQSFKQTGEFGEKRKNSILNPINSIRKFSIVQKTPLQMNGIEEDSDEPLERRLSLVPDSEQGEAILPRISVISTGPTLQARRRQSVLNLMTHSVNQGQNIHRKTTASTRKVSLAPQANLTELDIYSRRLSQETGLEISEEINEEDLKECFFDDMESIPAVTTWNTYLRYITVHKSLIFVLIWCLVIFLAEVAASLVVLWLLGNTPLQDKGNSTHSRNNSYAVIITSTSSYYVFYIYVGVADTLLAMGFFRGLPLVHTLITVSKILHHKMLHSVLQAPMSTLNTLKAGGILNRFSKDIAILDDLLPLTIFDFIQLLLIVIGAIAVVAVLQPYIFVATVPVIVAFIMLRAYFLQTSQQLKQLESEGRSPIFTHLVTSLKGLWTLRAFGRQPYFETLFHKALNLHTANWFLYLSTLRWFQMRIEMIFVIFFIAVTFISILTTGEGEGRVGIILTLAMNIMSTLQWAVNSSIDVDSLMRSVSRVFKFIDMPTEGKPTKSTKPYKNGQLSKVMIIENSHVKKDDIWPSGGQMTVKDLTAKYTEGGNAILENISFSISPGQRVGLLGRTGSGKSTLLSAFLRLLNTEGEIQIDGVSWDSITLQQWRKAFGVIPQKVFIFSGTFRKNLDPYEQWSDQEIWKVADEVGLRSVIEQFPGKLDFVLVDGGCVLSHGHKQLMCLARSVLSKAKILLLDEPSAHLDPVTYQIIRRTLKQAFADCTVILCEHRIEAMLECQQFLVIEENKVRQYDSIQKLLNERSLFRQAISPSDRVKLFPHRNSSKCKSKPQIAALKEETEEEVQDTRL

On to `O=S(=O)(c1ccc2c(c1)OCO2)N1CCC(n2c(-c3ccccc3Cl)nc3cccnc32)CC1` [Example 1, 3-(1-(Benzo[d][1,3]dioxol-5-ylsulfonyl)piperidin-4-yl)-2-(2-chlorophenyl)-3H-imidazo[4,5-b]pyridine], for which the Emax was in the range of 30 to 80% and the pEC50 is greater than 5.00.

With `Cc1ccc2nc(-c3ccccc3Cl)n(C3CCN(S(=O)(=O)c4ccc5c(c4)OCO5)CC3)c2n1` [Example 2], the Emax fell in the range of 30 to 80% and the pEC50 was greater than 5.00.

Consider `COc1ccc(S(=O)(=O)N2CCC(n3c(-c4ccccc4)nc4ccc(C)nc43)CC2)cc1Cl` [Example 3, 3-(1-((3-Chloro-4-methoxyphenyl)sulfonyl)piperidin-4-yl)-5-methyl-2-phenyl-3H-imidazo[4,5-b]pyridine], for which the maximum response (Emax) lay in the range of 30 to 80% and the negative logarithm of the EC50 (pEC50) was greater than 5.00.

As to `CCc1ccc(S(=O)(=O)N2CCC(n3c(-c4ccccc4)nc4cccnc43)CC2)cc1` [Example 4, 3-(1-((4-Ethylphenyl)sulfonyl)piperidin-4-yl)-2-phenyl-3H-imidazo[4,5b]pyridine], the Emax fell in the range of 30 to 80% and the negative logarithm of the EC50 (pEC50) is less than 4.70.

Turning to `O=S(=O)(c1ccc2c(c1)OCO2)N1CCC(n2c(-c3ccccc3)nc3cccnc32)CC1` [Example 5, 3-(1-(Benzo[d][1,3]dioxol-5-ylsulfonyl)piperidin-4-yl)-2-phenyl-3H-imidazo[4,5-b]pyridine], the maximum response (Emax) was in the range of 30 to 80% and the negative logarithm of the EC50 (pEC50) was greater than 5.00.

For the molecule `COc1ccc(S(=O)(=O)N2CCC(n3c(-c4ccccc4Cl)nc4cccnc43)CC2)cc1Cl` [Example 6, 3-(1-((3-Chloro-4-methoxyphenyl)sulfonyl)piperidin-4-yl)-2-(2-chlorophenyl)-3H-imidazo[4,5-b]pyridine], the Emax lay in the range of 30 to 80% and the pEC50 was greater than 5.00.

For `Cc1ccc2nc(-c3ccccc3Cl)n(C3CCN(S(=O)(=O)c4ccc(C)c(Cl)c4)CC3)c2n1` [Example 7, 3-(1-((3-Chloro-4-methylphenyl)sulfonyl)piperidin-4-yl)-2-(2-chlorophenyl)-5-methyl-3H-imidazo[4,5-b]pyridine], the Emax fell in the range of 30 to 80% and the pEC50 is greater than 5.00.

Turning to `COc1ccc(S(=O)(=O)N2CCC(n3c(-c4ccccc4Cl)nc4ccc(C)nc43)CC2)cc1F` [Example 8, 2-(2-Chlorophenyl)-3-(1-((3-fluoro-4-methyoxyphenyl)sulfonyl)piperidin-4-yl)-5-methyl-3H-imidazo[4,5-b]pyridine], the Emax fell in the range of 30 to 80% and the pEC50 is greater than 5.00.

Regarding `COc1ccc(S(=O)(=O)N2CCC(n3c(-c4ccccc4O)nc4cccnc43)CC2)cc1Cl` [Example 9, 2-(3-(1-((3-Chloro-4-methoxyphenyl)sulfonyl)piperidin-4-yl)-3H-imidazo[4,5-b]pyridin-2-yl)phenol], the Emax is 30 to 80% and the negative logarithm of the EC50 (pEC50) was greater than 5.00.

For `Cc1ccc(S(=O)(=O)N2CCC(n3c(-c4ccccc4Cl)nc4cccnc43)CC2)cc1Cl` [Example 10, 3-(1-((3-Chloro-4-methylphenyl)sulfonyl)piperidin-4-yl)-2-(2-chlorophenyl)-3H-imidazo[4,5-b]pyridine], the Emax lay in the range of 30 to 80% and the pEC50 was greater than 5.00.

Regarding `COc1ccc(S(=O)(=O)N2CCC(n3c(-c4ccccc4F)nc4cccnc43)CC2)cc1Cl` [Example 11, 3-(1-((3-Chloro-4-methoxyphenyl)sulfonyl)piperidin-4-yl)-2-(2-fluorophenyl)-3H-imidazo[4,5-b]pyridine], the Emax was in the range of 30 to 80% and the pEC50 is greater than 5.00.

In the case of `COc1ccc(S(=O)(=O)N2CCC(n3c(-c4ccc(Cl)cc4Cl)nc4cccnc43)CC2)cc1Cl` [Example 12, 3-(1-((3-Chloro-4-methoxyphenyl)sulfonyl)piperidin-4-yl)-2-(2,4-dichlorophenyl)-3H-imidazo[4,5-b]pyridine], the Emax lay within 10 to 30% and the pEC50 was greater than 5.00.

As for `Cc1ccc2nc(-c3ccncc3Cl)n(C3CCN(S(=O)(=O)c4ccc5c(c4)OC(F)(F)O5)CC3)c2n1` [Example 13, 2-(3-Chloropyridin-4-yl)-3-(1-((2,2-difluorobenzo[d][1,3]dioxol-5-yl)sulfonyl)piperidin-4-yl)-5-methyl-3H-imidazo[4,5-b]pyridine], the Emax is 30 to 80% and the pEC50 was greater than 5.00.

Consider `Cc1ccc2nc(-c3ccncc3Cl)n(C3CCN(S(=O)(=O)c4ccc5c(c4)OCO5)CC3)c2n1` [Example 14, 3-(1-(Benzo[d][1,3]dioxol-5-ylsulfonyl)piperidin-4-yl)-2-(3-chloropyridin-4-yl)-5-methyl-3H-imidazo[4,5-b]pyridine], for which the maximal effect (Emax) lay in the range of 10 to 30% and the pEC50 was less than 4.70.

For `Cc1ccc2nc(-c3cccnc3Cl)n(C3CCN(S(=O)(=O)c4ccc5c(c4)OC(F)(F)O5)CC3)c2n1` [Example 15, 2-(2-Chloropyridin-3-yl)-3-(1-((2,2-difluorobenzo[d][1,3]dioxol-5-yl)sulfonyl)piperidin-4-yl)-5-methyl-3H-imidazo[4,5-b]pyridine], the maximal effect (Emax) is 30 to 80% and the negative-log EC50 (pEC50) was greater than 5.00.

Turning to `COc1ccc(S(=O)(=O)N2CCC(n3c(-c4ccccc4)nc4cccnc43)CC2)cc1Cl` [Example 16], the maximal effect (Emax) is greater than 80% and the pEC50 is 4.70 to 5.00.

In the case of `Cc1ccc(S(=O)(=O)N2CCC(n3c(-c4ccccc4)nc4cccnc43)CC2)cc1` [Example 17], the Emax fell in the range of 30 to 80% and the pEC50 is greater than 5.00.

As for `COc1ccc(S(=O)(=O)N2CCC(n3c(-c4ccccc4)nc4cccnc43)CC2)cc1F` [Example 18], the Emax is 30 to 80% and the pEC50 was greater than 5.00.

As for `COc1ccc(S(=O)(=O)N2CCC(n3c(-c4ccccc4)nc4cccnc43)CC2)cc1` [Example 19], the maximal response (Emax) lay within 30 to 80% and the pEC50 was greater than 5.00.

Turning to `Cc1ccc(S(=O)(=O)N2CCC(n3c(-c4ccccc4)nc4cccnc43)CC2)cc1Cl` [Example 20], the maximal response (Emax) was in the range of 30 to 80% and the negative logarithm of the EC50 (pEC50) is greater than 5.00.

Take `COc1ccc(C(=O)N2CCC(n3c(-c4ccccc4)nc4cccnc43)CC2)cc1Cl` [Example 21]: the maximal response (Emax) was 10 to 30% and the pEC50 was less than 4.70.

With `COc1ccc(S(=O)(=O)N2CCC(n3c(-c4cccc(Cl)c4)nc4cccnc43)CC2)cc1Cl` [Example 22], the Emax was 30 to 80% and the pEC50 was greater than 5.00.

Consider `COc1ccc(S(=O)(=O)N2CCC(n3c(-c4cccc(C)c4)nc4cccnc43)CC2)cc1Cl` [Example 23], for which the Emax is greater than 80% and the pEC50 was greater than 5.00.

Consider `COc1ccc(S(=O)(=O)N2CCC(n3c(-c4ccc(C)cc4)nc4cccnc43)CC2)cc1Cl` [Example 24], for which the Emax was 30 to 80% and the negative logarithm of the EC50 (pEC50) is greater than 5.00.

Take `COc1ccc(S(=O)(=O)N2CCC(n3c(C4CCCC4)nc4cccnc43)CC2)cc1Cl` [Example 25]: the maximal response (Emax) lay in the range of 30 to 80% and the pEC50 is greater than 5.00.

`COc1ccc(S(=O)(=O)N2CCC(n3c(-c4ccccc4)nc4cc(C)cnc43)CC2)cc1Cl` [Example 26]: the Emax lay in the range of 30 to 80% and the pEC50 is greater than 5.00.

Consider `COc1ccc(S(=O)(=O)N2CCC(n3c(-c4cccnc4)nc4cccnc43)CC2)cc1Cl` [Example 27], for which the Emax is 30 to 80% and the pEC50 was greater than 5.00.

Turning to `COc1ccc(S(=O)(=O)N2CCC(n3c(-c4ccncc4)nc4cccnc43)CC2)cc1Cl` [Example 28], the Emax was in the range of 30 to 80% and the pEC50 is greater than 5.00.

As for `COc1ccc(S(=O)(=O)N2CCC(n3c(-c4ccc(Cl)cc4)nc4cccnc43)CC2)cc1Cl` [Example 29], the Emax was 10 to 30% and the negative-log EC50 (pEC50) was greater than 5.00.

On to `COc1ccc(S(=O)(=O)N2CCC(n3c(-c4ccccc4C)nc4cccnc43)CC2)cc1Cl` [Example 30], for which the maximum response (Emax) was in the range of 30 to 80% and the negative logarithm of the EC50 (pEC50) is greater than 5.00.

With `COc1ccc(S(=O)(=O)N2CCC(n3c(C4CCCCC4)nc4cccnc43)CC2)cc1Cl` [Example 31], the Emax lay in the range of 30 to 80% and the pEC50 was greater than 5.00.
